Source: article PMC6753678, “Fueling Open Innovation for Malaria Transmission-Blocking Drugs: Hundreds of Molecules Targeting Early Parasite Mosquito Stages” (Frontiers in Microbiology, 2019)
Where two headings read alike, the source gives them in different places.

Legend:
[1] = tested on: P. falciparum female gametocytes; assay: P. falciparum female gametogenesis assay (Pf FGAA); details: 1: YES; 0: NO
[2] = tested on: P. falciparum late stage (stages IV-V) gametocytes; assay: P. falciparum late stage gametocyte ATP depletion assay (Pf GC-ATP); details: 1: YES; 0: NO
[3] = tested on: P. falciparum female gametocytes; design: method as in Miguel-Blanco et al 2017; details: TCAMS screen comparison; ref Miguel-Blanco et al 2017; read-out: Pf FGAA IC50; cited from earlier work
HepG2 cells [4] = details: cited from earlier work
HepG2 cells [5] = assay: HepG2 cytotoxicity assay; details: HepG2 cytotoxicity unified across the three screens
Procedure, shortened: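 HepG2 cells, 2,500 per well in MEM with 10% FBS and 1% NEAA, exposed to compounds for 48 h at 37°C, 5% CO2. Viability read by fluorescence; percent inhibition relative to 50 μM doxorubicin and DMSO controls.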

[6] = tested on: P. falciparum late stage (stages IV-V) gametocytes; design: method as in Almela et al 2016; details: TCAMS screen comparison; ref Almela et al 2016; read-out: Pf GCT ATP IC50; cited from earlier work
[7] = value reported with the Pf GCT ATP screen, ref Almela et al 2016
[8] = value reported with the Pf FGAA screen, ref Miguel-Blanco et al 2017

| Structure (SMILES) | Is compound selective in assay? Pf FGAA active? [1] | Is compound selective in assay? Pf GC-ATP active? [2] | IC50 [3] | HepG2 cytoxicity (HepG2 cells [4]; [7]) | Unified cytotox (HepG2 cells [5]) | IC50 [6] | HepG2 cytoxicity (HepG2 cells [4]; [8]) |
| --- | --- | --- | --- | --- | --- | --- | --- |
| S=C(NN=Cc1ccccn1)NC1CC2C=CC1C2 (stereo not drawn) [TCMDC-125752] | 1 (1: YES) | 0 (0: NO) | 0.0153 µM | 0.7 µM | 0.70 µM | 0.11 µM | – |
| COc1ccc(CCNCCCCCCNCCc2ccc(-c3ccccc3)cc2)cc1OC.Cl [TCMDC-131267] | 0 (0: NO) | 1 (1: YES) | 1.26 µM | 3.25 µM | 5.07 µM | 0.17 µM | 6.90 µM |
| COc1ccc(CCNCCCCCCNCCc2ccc(Cl)c3ccccc23)cc1OC.Cl [TCMDC-131270] | 0 (0: NO) | 1 (1: YES) | 0.58 µM | 3.23 µM | 2.68 µM | 0.13 µM | 2.12 µM |
| Br.Oc1ccc(CCNCCCCCCNCCc2ccc(Cl)c3ccccc23)cc1O [TCMDC-131271] | 0 (0: NO) | 1 (1: YES) | 2.38 µM | 13.5 µM | 12.36 µM | 0.53 µM | 11.22 µM |
| COc1ccc(CCNCCCCCCNCCc2ccc(Cl)cc2)c(Cl)c1OC.Cl [TCMDC-131272] | 0 (0: NO) | 1 (1: YES) | 0.83 µM | 6.2 µM | 5.87 µM | 0.26 µM | 5.54 µM |
| Br.CCCCc1ccc(CCNCCCCCCNCCc2ccc(O)c(O)c2)cc1 [TCMDC-131281] | 0 (0: NO) | 1 (1: YES) | 2.15 µM | 8.19 µM | 6.41 µM | 0.54 µM | 4.63 µM |
| CCC(CSC1CCCCC1)N(C)CCN(C)C(CC)CSC1CCCCC1.Cl (stereo not drawn) [TCMDC-131456] | 0 (0: NO) | 0 (0: NO) | 1.25 µM | 0.87 µM | 0.47 µM | 1.4 µM | 0.0654 µM |
| C[C@H](Cc1ccc(C[C@@H](C)NC[C@H](O)c2cccc(Cl)c2)cc1)NC[C@H](O)COc1ccccc1.Cl [TCMDC-131549] | 0 (0: NO) | 0 (0: NO) | 1.39 µM | 4.7 µM | 4.94 µM | 0.92 µM | 5.19 µM |
| C[C@H](Cc1ccc(CCc2ccc(C[C@@H](C)NC[C@H](O)c3cccc(Cl)c3)cc2)cc1)NC[C@H](O)c1cccc(Cl)c1.Cl [TCMDC-131551] | 0 (0: NO) | 1 (1: YES) | 2.05 µM | 3.1 µM | 3.68 µM | 0.27 µM | 4.27 µM |
| C[C@H](Cc1ccc(Oc2ccc(C[C@@H](C)NC[C@H](O)c3cccc(Cl)c3)cc2)cc1)NC[C@H](O)c1cccc(Cl)c1.Cl [TCMDC-131560] | 0 (0: NO) | 0 (0: NO) | 0.72 µM | 1.91 µM | 1.98 µM | 0.27 µM | 2.04 µM |
| C[C@H](Cc1ccc(OCCCCCOc2ccc(C[C@@H](C)NC[C@H](O)c3cccc(Cl)c3)cc2)cc1)NC[C@H](O)c1cccc(Cl)c1.Cl [TCMDC-131563] | 0 (0: NO) | 0 (0: NO) | 0.96 µM | 1.79 µM | 1.95 µM | 0.55 µM | 2.11 µM |
| N=C(/N=C(/NCCCCCCN/C(=N\C(=N)Nc1ccc(Cl)cc1)N1CCCCC1)N1CCCCC1)Nc1ccc(Cl)cc1 [TCMDC-131811] | 0 (0: NO) | 1 (1: YES) | 7.87 µM | 22.9 µM | 33.57 µM | 0.38 µM | 44.23 µM |
| N=C(/N=C(/NCCCCCCN/C(=N/C(=N)NCc1ccc(Cl)c(Cl)c1)N1CCCCC1)N1CCCCC1)NCc1ccc(Cl)c(Cl)c1 [TCMDC-131816] | 1 (1: YES) | 1 (1: YES) | 2.61 µM | >25 µM | 43.18 µM | 0.37 µM | 43.18 µM |
